Tests used:
[1] = target: T1, M1 muscarinic receptor (Homo sapiens, UniProt P11229); test: Functional mobilization of intracellular calcium (FLIPR) in M1-CHO cells; format: cell-based; conditions: Table 4; for Emax: 100% efficacy is the maximum response obtained with the Carbachol control; for M1 Activity: modulating M1 receptor
T1 construct: expressed in transfected cells; host or cells: CHO (M1-CHO)
T1 sequence (P11229 1-460): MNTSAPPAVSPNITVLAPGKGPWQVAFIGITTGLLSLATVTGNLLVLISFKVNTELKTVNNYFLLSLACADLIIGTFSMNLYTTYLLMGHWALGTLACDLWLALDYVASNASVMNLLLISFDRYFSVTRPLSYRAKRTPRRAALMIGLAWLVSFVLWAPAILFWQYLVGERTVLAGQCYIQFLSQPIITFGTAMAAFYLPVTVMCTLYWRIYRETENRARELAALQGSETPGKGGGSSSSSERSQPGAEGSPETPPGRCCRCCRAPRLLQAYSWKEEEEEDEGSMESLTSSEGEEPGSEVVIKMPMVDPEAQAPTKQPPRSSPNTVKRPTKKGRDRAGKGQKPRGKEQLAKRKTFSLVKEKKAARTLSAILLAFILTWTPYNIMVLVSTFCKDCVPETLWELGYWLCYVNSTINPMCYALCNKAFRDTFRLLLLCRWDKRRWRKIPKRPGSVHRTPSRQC
Summary of the method: (§1)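 Steps: seed M1- or M4-CHO cells 18-24 hrs ahead; load calcium dye with 1 mM probenecid; add test compound (0.5% DMSO final), either alone for agonism or 15 min before EC80 carbachol for inhibition; record FLIPR fluorescence for 60 sec.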

[2] = target: T2, M4 muscarinic receptor (Homo sapiens, UniProt P08173); test: Functional mobilization of intracellular calcium (FLIPR) in M4-CHO cells; format: cell-based; conditions: Table 4; for Emax: 100% efficacy is the maximum response obtained with the Carbachol control; for M4 Activity: modulating M4 receptor
T2 construct: expressed in transfected cells; host or cells: CHO (M4-CHO)
T2 sequence (P08173 1-479): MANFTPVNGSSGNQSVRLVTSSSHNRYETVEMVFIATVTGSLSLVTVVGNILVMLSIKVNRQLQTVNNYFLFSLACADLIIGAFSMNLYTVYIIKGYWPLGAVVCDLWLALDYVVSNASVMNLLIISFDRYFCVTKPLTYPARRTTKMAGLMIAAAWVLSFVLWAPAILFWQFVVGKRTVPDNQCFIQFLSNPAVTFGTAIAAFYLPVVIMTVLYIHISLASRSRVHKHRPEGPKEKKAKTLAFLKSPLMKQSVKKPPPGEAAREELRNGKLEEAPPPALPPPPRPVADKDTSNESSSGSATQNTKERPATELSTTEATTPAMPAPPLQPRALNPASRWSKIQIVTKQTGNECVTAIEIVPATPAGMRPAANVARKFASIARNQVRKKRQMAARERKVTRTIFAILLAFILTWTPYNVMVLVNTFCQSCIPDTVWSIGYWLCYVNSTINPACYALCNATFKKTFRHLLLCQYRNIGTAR
Summary of the method: as §1

Structure (SMILES) | Emax [1] | M1 Activity [1] | Emax [2] | M4 Activity [2]
C#Cc1ccc2c(c1)C1(CCN(C3CCN(C(=O)OCC)CC3)CC1)CN2C(C)=O [compound 563] | > 100% | xxx (activity was measured to be less than 2.0 μM) | 25 to 100% | xxx (activity was measured to be less than 2.0 μM)
C#CCOC(=O)N1CC[C@@H](CN2CCC3(CC2)CN(C(C)=O)c2cccc(C)c23)C1 [compound 564] | 25 to 100% | xxx (activity was measured to be less than 2.0 μM) | 25 to 100% | xxx (activity was measured to be less than 2.0 μM)
C#CCCOC(=O)N1CCC(N2CCC3(CC2)CN(CCOC)c2ccc(F)cc23)CC1 [compound 565] | 25 to 100% | xxx (activity was measured to be less than 2.0 μM) | 25 to 100% | xxx (activity was measured to be less than 2.0 μM)
COc1cc2c(cc1OC)C1(CCN(C3CC(C)(C)CC(C)(C)C3)CC1)CC2NC(C)=O (stereo not shown) [compound 566] | < 25% | x (activity was measured to be greater than 5.0 μM) | < 25% | x (activity was measured to be greater than 5.0 μM)
CCOC(=O)N1CCC(N2CCC3(CC2)CN(c2ncccn2)c2ccc(F)cc23)CC1 [compound 567] | 25 to 100% | xxx (activity was measured to be less than 2.0 μM) | 25 to 100% | xxx (activity was measured to be less than 2.0 μM)
CC(=O)N[C@H]1CCC2(CCN(CCC3CCCCC3)CC2)c2ccccc21 [compound 568] | 25 to 100% | xxx (activity was measured to be less than 2.0 μM) | < 25% | xxx (activity was measured to be less than 2.0 μM)
COc1ccc([C@@H](C)N[C@H]2CC3(CCN(CC4CC5C=CC4C5)CC3)c3cc(Cl)ccc32)cc1 (stereo partly shown) [compound 569] | 25 to 100% | xx (activity was measured to be between 2.0 μM and 5.0 μM) | 25 to 100% | xx (activity was measured to be between 2.0 μM and 5.0 μM)
CN(C)C(=O)N1CC2(CCN(C[C@@H]3CCN(c4nccs4)C3)CC2)c2cc(F)ccc21 [compound 570] | 25 to 100% | xx (activity was measured to be between 2.0 μM and 5.0 μM) | 25 to 100% | xxx (activity was measured to be less than 2.0 μM)
COCCN1CC2(CCN(C3CCN(C(=O)OC(C)C)CC3)CC2)c2cc(F)ccc21 [compound 571] | 25 to 100% | xxx (activity was measured to be less than 2.0 μM) | 25 to 100% | xxx (activity was measured to be less than 2.0 μM)
Cc1noc(C)c1C(=O)N1CCC(N2CCC3(CC2)CN(C(=O)N(C)C)c2ccc(F)cc23)CC1 [compound 572] | 25 to 100% | xx (activity was measured to be between 2.0 μM and 5.0 μM) | < 25% | x (activity was measured to be greater than 5.0 μM)
C#CCOC(=O)N1CC[C@H](CN2CCC3(CC2)CN(C(C)=O)c2cccc(C)c23)C1 [compound 573] | 25 to 100% | xxx (activity was measured to be less than 2.0 μM) | 25 to 100% | xxx (activity was measured to be less than 2.0 μM)
C#CC(=O)N1CCC(N2CCC3(CC2)CN(C(=O)N(C)C)c2ccc(F)cc23)CC1 [compound 574] | 25 to 100% | xx (activity was measured to be between 2.0 μM and 5.0 μM) | 25 to 100% | xxx (activity was measured to be less than 2.0 μM)
CC(=O)N[C@H]1CCC2(CCN(CCC3CCN(C(=O)OC(C)(C)C)CC3)CC2)c2ccccc21 [compound 575] | < 25% | x (activity was measured to be greater than 5.0 μM) | < 25% | x (activity was measured to be greater than 5.0 μM)
O=C(N[C@H]1CCC2(CCN(CC3CC4C=CC3C4)CC2)c2ccccc21)C1CC1 (stereo partly shown) [compound 576] | 25 to 100% | xxx (activity was measured to be less than 2.0 μM) | 25 to 100% | xxx (activity was measured to be less than 2.0 μM)
CC(=O)N1CC2(CCN(CC3CC3)CC2)c2cc(F)ccc21 [compound 577] | < 25% | x (activity was measured to be greater than 5.0 μM) | < 25% | x (activity was measured to be greater than 5.0 μM)
CCC#CCOC(=O)N1CC[C@H](CN2CCC3(CC2)CN(C(C)=O)c2ccccc23)C1 [compound 578] | 25 to 100% | xxx (activity was measured to be less than 2.0 μM) | 25 to 100% | xxx (activity was measured to be less than 2.0 μM)
CCOC(=O)N1CCC(N2CCC3(CC2)CN(C(C)=O)c2c(F)cc(F)cc23)CC1 [compound 579] | 25 to 100% | xxx (activity was measured to be less than 2.0 μM) | 25 to 100% | xxx (activity was measured to be less than 2.0 μM)
CCOC(=O)N1C2CCC1CC(N1CCC3(CC1)CN(C(C)=O)c1ccc(S(C)(=O)=O)cc13)C2 (stereo not shown) [compound 580] | 25 to 100% | xxx (activity was measured to be less than 2.0 μM) | 25 to 100% | x (activity was measured to be greater than 5.0 μM)
CC(=O)N[C@H]1CCC2(CCN(CCC3CC4CCC3C4)CC2)c2ccccc21 (stereo partly shown) [compound 581] | 25 to 100% | xxx (activity was measured to be less than 2.0 μM) | < 25% | xxx (activity was measured to be less than 2.0 μM)
CCOC(=O)N1C2CCC1CC(N1CCC3(CC1)CN(C(C)=O)c1ccc(C(F)(F)F)cc13)C2 (stereo not shown) [compound 583] | 25 to 100% | xxx (activity was measured to be less than 2.0 μM) | 25 to 100% | xxx (activity was measured to be less than 2.0 μM)
CN(C)C(=O)N1CC2(CCN(C[C@@H]3CCN(C(=O)OCC4CC4)C3)CC2)c2cc(F)ccc21 [compound 584] | 25 to 100% | xxx (activity was measured to be less than 2.0 μM) | 25 to 100% | xxx (activity was measured to be less than 2.0 μM)
CCOC(=O)N1CCC(N2CCC3(CC2)CN(c2ccccn2)c2ccc(F)cc23)CC1 [compound 585] | 25 to 100% | xxx (activity was measured to be less than 2.0 μM) | 25 to 100% | xxx (activity was measured to be less than 2.0 μM)
COC(=O)NC1CC2(CCN(C3C[C@@H]4CC[C@@H]3C4)CC2)c2ccccc21 (stereo partly shown) [compound 586] | 25 to 100% | xxx (activity was measured to be less than 2.0 μM) | 25 to 100% | xxx (activity was measured to be less than 2.0 μM)
CCOC(=O)N1CCC(N2CCCC3(CC2)CN(C(C)=O)c2ccc(F)cc23)CC1 (stereo not shown) [compound 587] | 25 to 100% | xxx (activity was measured to be less than 2.0 μM) | 25 to 100% | xxx (activity was measured to be less than 2.0 μM)
CN(C)C(=O)N1CC2(CCN(C3CCN(C(=O)COc4ccccc4)CC3)CC2)c2cc(F)ccc21 [compound 588] | < 25% | x (activity was measured to be greater than 5.0 μM) | < 25% | x (activity was measured to be greater than 5.0 μM)
CC#CC(C)OC(=O)N1CCC(N2CCC3(CC2)CN(C(C)=O)c2ccccc23)CC1 (stereo not shown) [compound 589] | < 25% | x (activity was measured to be greater than 5.0 μM) | < 25% | x (activity was measured to be greater than 5.0 μM)
CCCCC(=O)N1CCC(N2CCC3(CC2)CN(C(=O)N(C)C)c2ccc(F)cc23)CC1 [compound 590] | 25 to 100% | xx (activity was measured to be between 2.0 μM and 5.0 μM) | < 25% | xx (activity was measured to be between 2.0 μM and 5.0 μM)
CCOC(=O)N1CCC(N2CCC3(CCCc4ccccc43)CC2)CC1 [compound 591] | > 100% | xxx (activity was measured to be less than 2.0 μM) | 25 to 100% | xxx (activity was measured to be less than 2.0 μM)
